The target of the assay is T1, purified human HDAC6 (Homo sapiens, UniProt Q9UBN7).
T1 construct: purchased BPS Bioscience 5006
T1 sequence (Q9UBN7 1-1215): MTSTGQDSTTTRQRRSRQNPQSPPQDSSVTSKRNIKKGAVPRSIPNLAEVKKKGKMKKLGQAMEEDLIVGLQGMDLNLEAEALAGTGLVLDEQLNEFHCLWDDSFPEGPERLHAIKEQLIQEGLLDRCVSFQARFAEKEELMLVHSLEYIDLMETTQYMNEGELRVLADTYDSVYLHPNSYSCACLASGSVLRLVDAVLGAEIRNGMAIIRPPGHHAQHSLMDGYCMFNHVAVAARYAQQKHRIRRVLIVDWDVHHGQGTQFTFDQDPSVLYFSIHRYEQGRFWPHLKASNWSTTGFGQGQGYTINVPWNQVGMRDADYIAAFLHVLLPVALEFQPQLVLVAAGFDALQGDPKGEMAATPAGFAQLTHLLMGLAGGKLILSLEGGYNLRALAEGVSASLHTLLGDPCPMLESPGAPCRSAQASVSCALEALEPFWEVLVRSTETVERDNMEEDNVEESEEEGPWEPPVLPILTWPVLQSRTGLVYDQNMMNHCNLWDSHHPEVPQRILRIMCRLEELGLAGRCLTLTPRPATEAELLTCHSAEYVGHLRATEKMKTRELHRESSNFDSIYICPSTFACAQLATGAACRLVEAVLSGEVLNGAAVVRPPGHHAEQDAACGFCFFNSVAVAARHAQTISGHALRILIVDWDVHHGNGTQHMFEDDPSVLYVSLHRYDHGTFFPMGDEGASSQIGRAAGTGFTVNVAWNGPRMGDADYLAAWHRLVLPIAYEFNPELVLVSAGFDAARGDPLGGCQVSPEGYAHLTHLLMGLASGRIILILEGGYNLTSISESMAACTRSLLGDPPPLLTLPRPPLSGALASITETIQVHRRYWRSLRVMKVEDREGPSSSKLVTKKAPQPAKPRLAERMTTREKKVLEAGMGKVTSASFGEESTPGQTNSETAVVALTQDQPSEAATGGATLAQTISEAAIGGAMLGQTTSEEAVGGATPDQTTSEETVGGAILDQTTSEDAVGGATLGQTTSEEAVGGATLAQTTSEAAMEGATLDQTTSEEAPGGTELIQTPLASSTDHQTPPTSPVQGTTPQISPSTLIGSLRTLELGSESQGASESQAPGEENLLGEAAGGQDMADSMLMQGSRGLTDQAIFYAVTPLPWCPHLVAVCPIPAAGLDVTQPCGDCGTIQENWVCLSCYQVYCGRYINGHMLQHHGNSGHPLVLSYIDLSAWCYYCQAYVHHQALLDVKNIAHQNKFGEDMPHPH
Briefly: HDAC6 Enzyme Assay. Type of assay: biochemical. The settings on record: read-out: Percent Inhibition; for inhibition at 0.412 µM: compound concentration 0.412 μM; for inhibition at 0.37 µM: compound concentration 0.37 μM. The procedure, abridged:
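Readout is AMC fluorescence (Ex 340 nm, Em 460 nm) after trypsin cleavage of the deacetylated Ac-Arg-Gly-Lys(Ac)-AMC product. Reaction: purified human HDAC6, compound or vehicle, 1 hour, 30° C, quenched by trichostatin A. Single-concentration percent inhibition or IC50 calculated versus DMSO-treated samples.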

Data on 26 compounds can be found in patent US8765773B2, “Substituted hydroxamic acids and uses thereof” (Millennium Pharmaceuticals, Inc., priority 2010, dated 2014).

One may read the inhibition as the share of the control response that was lost under treatment.

Take `COc1ccc(N(CCn2ccc3ccc(C(=O)NO)cc3c2=O)Cc2ccc(Cl)cc2)cc1` [Compound I-229, 2-{2-[(4-chlorobenzyl)(4-methoxyphenyl)amino]ethyl}-N-hydroxy-1-oxo-1,2-dihydroisoquinoline-7-carboxamide]: the inhibition at 0.412 µM worked out at 83.2%.
As for `CC(C)(C)C(=O)Nc1ncccc1-c1cccc(Cn2cnc3ccc(C(=O)NO)cc3c2=O)c1` [Compound I-230, 3-(3-{2-[(2,2-dimethylpropanoyl)amino]pyridin-3-yl}benzyl)-N-hydroxy-4-oxo-3,4-dihydroquinazoline-6-carboxamide], the inhibition at 0.37 µM turned out to be 92.4%.
Take `COc1ccc2ccc(OCCCn3ccc4ccc(C(=O)NO)cc4c3=O)cc2c1` [Compound I-231, N-hydroxy-2-{3-[(7-methoxy-2-naphthyl)oxy]propyl}-1-oxo-1,2-dihydroisoquinoline-7-carboxamide]: the inhibition at 0.412 µM came out at 94.8%.
Same read-out and setting: to `O=C(NO)c1ccc2cc[nH]c(=O)c2c1` [Compound I-232, N-hydroxy-1-oxo-1,2-dihydroisoquinoline-7-carboxamide] belongs 70.9%; to `O=C(NO)c1ccc2c(=O)[nH]c(COc3ccccc3-n3cccc3)nc2c1` [Compound I-233, N-hydroxy-4-oxo-2-{[2-(1H-pyrrol-1-yl)phenoxy]methyl}-3,4-dihydroquinazoline-7-carboxamide], 91.1%.
The same measure, in the same setting: to `Cc1nn(-c2ccccc2)nc1Cn1ccc2ccc(C(=O)NO)cc2c1=O` [Compound I-234, N-hydroxy-2-[(5-methyl-2-phenyl-2H-1,2,3-triazol-4-yl)methyl]-1-oxo-1,2-dihydroisoquinoline-7-carboxamide] belongs 98.6%.
On the same count and under the same terms, to `O=C(NO)c1ccc2ccn(CCCOc3ccc(Oc4ccccc4)cc3)c(=O)c2c1` [Compound I-235, N-hydroxy-1-oxo-2-[3-(4-phenoxyphenoxy)propyl]-1,2-dihydroisoquinoline-7-carboxamide] belongs 87.5%.
Consider `O=C(NO)c1ccc2ccn(CCc3ccc(Cl)cc3)c(=O)c2c1` [Compound I-236, 2-[2-(4-chlorophenyl)ethyl]-N-hydroxy-1-oxo-1,2-dihydroisoquinoline-7-carboxamide], for which the inhibition at 0.412 µM is 96.2%.
Regarding `O=C(NO)c1ccc2c(=O)n(Cc3ccc(C(F)(F)F)cc3)c(-c3cnc(N4CCOCC4)s3)nc2c1` [Compound I-237, N-hydroxy-2-(2-morpholin-4-yl-1,3-thiazol-5-yl)-4-oxo-3-[4-(trifluoromethyl)benzyl]-3,4-dihydroquinazoline-7-carboxamide], the inhibition at 0.37 µM was 88%.
Take `O=C(NO)c1ccc2c(=O)n(Cc3ccccc3)c(NCc3ccc(Cl)cc3)nc2c1` [Compound I-238, 3-benzyl-2-[(4-chlorobenzyl)amino]-N-hydroxy-4-oxo-3,4-dihydroquinazoline-7-carboxamide]: the inhibition at 0.412 µM is 86.2%.
Still for that read-out and setting: the value for `O=C(NO)c1ccc2ncn(CCCc3ccccc3)c(=O)c2c1` [Compound I-239, N-hydroxy-4-oxo-3-(3-phenylpropyl)-3,4-dihydroquinazoline-6-carboxamide] was 93.8%.
Still for that read-out and setting: the value for `COc1ccccc1OCCCn1ccc2ccc(C(=O)NO)cc2c1=O` [Compound I-240, N-hydroxy-2-[3-(2-methoxyphenoxy)propyl]-1-oxo-1,2-dihydroisoquinoline-7-carboxamide] was 96%.
Take `CC(C)(C)OC(=O)N1CCC(NC(=O)c2nc3cc(C(=O)NO)ccc3c(=O)[nH]2)CC1` [Compound I-241, tert-butyl 4-[({7-[(hydroxyamino)carbonyl]-4-oxo-3,4-dihydroquinazolin-2-yl}carbonyl)amino]piperidine-1-carboxylate]: the inhibition at 0.412 µM is 29.8%.
On to `Cn1cnc2cc(C(=O)NO)ccc2c1=O` [Compound I-242, N-hydroxy-3-methyl-4-oxo-3,4-dihydroquinazoline-7-carboxamide], for which the inhibition at 0.412 µM is 68.8%.
For `Cn1c(NCCc2ccc(Cl)cc2)nc2ccc(C(=O)NO)cc2c1=O` [Compound I-243, 2-{[2-(4-chlorophenyl)ethyl]amino}-N-hydroxy-3-methyl-4-oxo-3,4-dihydroquinazoline-6-carboxamide], the inhibition at 0.412 µM is 60.8%.
For `CN(C)S(=O)(=O)c1cccc(-c2cccc(Cn3cnc4ccc(C(=O)NO)cc4c3=O)c2)c1` [Compound I-244, 3-({3′-[(dimethylamino)sulfonyl]biphenyl-3-yl}methyl)-N-hydroxy-4-oxo-3,4-dihydroquinazoline-6-carboxamide], the inhibition at 0.37 µM came to 89.4%.
The same measure, in the same setting: to `CC(C)(C)OC(=O)NCCCn1ccc2ccc(C(=O)NO)cc2c1=O` [Compound I-245, tert-butyl {3-[7-[(hydroxyamino)carbonyl]-1-oxoisoquinolin-2(1H)-yl]propyl}carbamate] belongs 94.5%.
For `O=C(NO)c1ccc2ccn(CCOc3ccc(Cl)cc3)c(=O)c2c1` [Compound I-246, 2-[2-(4-chlorophenoxy)ethyl]-N-hydroxy-1-oxo-1,2-dihydroisoquinoline-7-carboxamide], the inhibition at 0.412 µM is 97.7%.
Consider `O=C(NO)c1ccc2ccn(-c3ccc(Cl)cc3)c(=O)c2c1` [Compound I-247, 2-(4-chlorophenyl)-N-hydroxy-1-oxo-1,2-dihydroisoquinoline-7-carboxamide], for which the inhibition at 0.37 µM came out at 93%.
Take `COc1ccccc1OCc1nc2cc(C(=O)NO)ccc2c(=O)[nH]1` [Compound I-248, N-hydroxy-2-[(2-methoxyphenoxy)methyl]-4-oxo-3,4-dihydroquinazoline-7-carboxamide]: the inhibition at 0.412 µM is 90%.
As to `CS(=O)(=O)c1ccccc1OCc1nc2cc(C(=O)NO)ccc2c(=O)[nH]1` [Compound I-249, N-hydroxy-2-{[2-(methylsulfonyl)phenoxy]methyl}-4-oxo-3,4-dihydroquinazoline-7-carboxamide], the inhibition at 0.412 µM amounted to 56.5%.
Regarding `NC(=O)CCn1ccc2ccc(C(=O)NO)cc2c1=O` [Compound I-250, 2-(3-amino-3-oxopropyl)-N-hydroxy-1-oxo-1,2-dihydroisoquinoline-7-carboxamide], the inhibition at 0.412 µM was found to be 77%.
On the same count and under the same terms, to `O=C(NO)c1ccc2ccn(CCc3cccc4ccccc34)c(=O)c2c1` [Compound I-251, N-hydroxy-2-[2-(1-naphthyl)ethyl]-1-oxo-1,2-dihydroisoquinoline-7-carboxamide] belongs 96.6%; to `O=C(NO)c1ccc2ccn(CCOc3ccccc3)c(=O)c2c1` [Compound I-252, N-hydroxy-1-oxo-2-(2-phenoxyethyl)-1,2-dihydroisoquinoline-7-carboxamide], 97.6%.
Still for that read-out and setting: the value for `O=C(NO)c1ccc2ccn(CCN(Cc3cccc(C(F)(F)F)c3)Cc3cccc(C(F)(F)F)c3)c(=O)c2c1` [Compound I-253, 2-(2-{bis[3-(trifluoromethyl)benzyl]amino}ethyl)-N-hydroxy-1-oxo-1,2-dihydroisoquinoline-7-carboxamide] was 57.5%.
Take `O=C(NO)c1ccc2ncn(Cc3cccc(-c4ccc(S(=O)(=O)N5CCCCC5)cc4)c3)c(=O)c2c1` [Compound I-254, N-hydroxy-4-oxo-3-{[4′-(piperidin-1-ylsulfonyl)biphenyl-3-yl]methyl}-3,4-dihydroquinazoline-6-carboxamide]: the inhibition at 0.37 µM was 94%.
